{"source": "patent US11845748B2", "about": "“Bicyclic pyridine N-oxide derivatives useful as a factor XIa inhibitors” (Janssen Pharmaceutica NV, priority 2021, dated 2023)", "key": {"[1]": {"molecular_target": "Factor XIa (Homo sapiens, UniProt P03951)", "sequence (P03951 388-625 limits assumed)": "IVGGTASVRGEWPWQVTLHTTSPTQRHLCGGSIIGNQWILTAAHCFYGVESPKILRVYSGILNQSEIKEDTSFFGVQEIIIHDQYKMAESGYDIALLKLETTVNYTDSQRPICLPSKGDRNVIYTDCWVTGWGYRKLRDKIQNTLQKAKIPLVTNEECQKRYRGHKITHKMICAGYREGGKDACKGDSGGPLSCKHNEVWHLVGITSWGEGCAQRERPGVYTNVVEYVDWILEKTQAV", "sequence (P03951 19-387 partner limits assumed)": "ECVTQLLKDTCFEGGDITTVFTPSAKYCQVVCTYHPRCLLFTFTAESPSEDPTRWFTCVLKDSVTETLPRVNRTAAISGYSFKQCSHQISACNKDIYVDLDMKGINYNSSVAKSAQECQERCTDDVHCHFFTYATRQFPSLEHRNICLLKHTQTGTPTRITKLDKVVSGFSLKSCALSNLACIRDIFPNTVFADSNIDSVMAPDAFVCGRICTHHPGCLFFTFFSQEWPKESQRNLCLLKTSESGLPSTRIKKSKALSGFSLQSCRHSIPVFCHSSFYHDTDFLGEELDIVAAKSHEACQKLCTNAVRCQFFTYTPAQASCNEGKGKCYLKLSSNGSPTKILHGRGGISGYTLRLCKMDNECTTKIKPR", "assay": "Factor XIa inhibition assay utilizing a fluorophore-quencher pair peptide substrate (FLINT)", "type": "biochemical", "settings": "kinetic reads at 5 min intervals over 30 min; 30 min preincubation; 5Fam-KLTRAETV-K5Tamra substrate; read-out: FXIa (KIN) IC50", "text": "Biological Example 1: Factor XIa Inhibition Assay Utilizing a Fluorophore-Quencher Pair Peptide Substrate\nA fluorescence intensity (FLINT) based assay was used to monitor inhibition of Factor XIa. The peptide substrate, 5Fam-KLTRAETV-K5Tamra (purchased from New England Peptide) was chosen based on the […]. Conversion of zymogen […]. The custom peptide used in this assay was based on the Arg146 cleavage site of FXI. The peptide substrate was designed with a fluorophore-quencher pair, where the fluorescence is quenched until FXIa cleaves the 8-mer peptide after the Arg residue. The substrate KM was fit to a substrate inhibition model whereby kcat=0.86 s^−1, KM=12.4 μM, Ki=61.6 μM with an enzymatic efficiency, and kcat/KM=69523 M^−1s^−1.\nThe Factor XIa FLINT assay was used with the following 5Fam-KLTRAETV-K5Tamra assay buffer: 50 mM Tris, pH 7.5, 100 mM NaCl, 5 mM CaCl2, 0.1 mg/mL BSA, 0.03% CHAPS. Assay buffer was prepared by mixing all ingredients fresh. 5Fam-KLTRAETV-K5Tamra peptide substrate was first prepared at 10 mM in 100% DMSO, then diluted to 3 mM in 100% DMSO. Assay buffer was then added directly to the 3 mM stock of substrate to prepare the 30 μM 2× working concentration (15 μM final concentration). The 2× Factor XIa stock solution was prepared by diluting 6.562 μM stock in 1× assay buffer for a 200 pM working stock solution (100 pM final concentration).\nTest compound(s) were run in an 11-point, 3-fold serial dilution with a final top compound concentration of 100 nM. Final DMSO in assay was 2%. FXIa was preincubated with compound for 30-minutes and then substrate was added to initiate the reaction. The assay was run with either end point (EP) reads at 30 min or kinetic (KIN) reads at 5 min intervals over 30 minutes. The time course was linear using 100 μM FXIa greater than 30 minutes. More specifically, the assay was run as follows: • 100 nL of 0.01 mM test compound was dispensed into black 384-well non-binding Greiner BioOne 784900 plate for 0.1 μM final concentration; • 5 μL of 1× assay buffer was dispensed to column 24 (low control) and 5 μL 2× Factor XIa solution was dispensed to columns 1-23 (column 23 high control); • the plate was centrifuged with a “cover” plate at 500 rpm for 1 min the plate was pre-incubated for 30 minutes at room temperature with plate covered; • 5 μL of 2× 5Fam-KLTRAETV-K5Tamra peptide substrate was dispensed into the entire plate, columns 1-24; • the plate was centrifuged with a “cover” plate at 500 rpm for 1 min; • the plate was read monitoring fluorescence intensity on the BMG PHERAStar at room temperature, using fluorescence module 485 nm/520 nm.\nPercent inhibition (IC50) curves were generated per compound tested, and data was analyzed using a 4-parameter logistic fit using GeneData Screener. The relative fluorescence unit (RFU) values were normalized to percent inhibition using the following equation: % inhibition=((HC−LC)−(compound−LC)/(HC−LC))*100 where LC—low control=mean signal of no Factor XIa or 100% inhibition of Factor XIa; HC—high control=mean signal of Factor XIa+5Fam-KLTRAETV-K5Tamra peptide substrate with DMSO only.\n(§1) An 11-point dose response curve for the test compound(s) was generated using GENDATA to determine IC50 value based on the following equation: Y=Bottom+(Top−Bottom)/(1+10^((log IC50−X)*HillSlope))\nwhere Y is the % inhibition in the presence of X inhibitor concentration, Top=high control=mean signal of Factor XIa+5Fam-KLTRAETV-K5Tamra peptide substrate with DMSO only; Bottom=low control−mean signal of no Factor XIa or 100% inhibition of Factor XIa; HillSlope—Hill coefficient; and IC50=concentration of compound with 50% inhibition in relation to top/high control. […]"}, "[2]": {"molecular_target": "human plasma kallikrein (Homo sapiens, UniProt P03952)", "sequence (P03952 391-638 limits assumed)": "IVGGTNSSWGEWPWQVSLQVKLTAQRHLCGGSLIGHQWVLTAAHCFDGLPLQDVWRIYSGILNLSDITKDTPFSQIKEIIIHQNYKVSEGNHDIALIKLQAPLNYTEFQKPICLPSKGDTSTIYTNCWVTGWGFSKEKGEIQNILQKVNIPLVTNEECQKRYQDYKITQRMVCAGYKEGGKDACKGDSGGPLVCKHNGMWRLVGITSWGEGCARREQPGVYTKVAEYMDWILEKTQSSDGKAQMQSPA", "sequence (P03952 20-390 partner limits assumed)": "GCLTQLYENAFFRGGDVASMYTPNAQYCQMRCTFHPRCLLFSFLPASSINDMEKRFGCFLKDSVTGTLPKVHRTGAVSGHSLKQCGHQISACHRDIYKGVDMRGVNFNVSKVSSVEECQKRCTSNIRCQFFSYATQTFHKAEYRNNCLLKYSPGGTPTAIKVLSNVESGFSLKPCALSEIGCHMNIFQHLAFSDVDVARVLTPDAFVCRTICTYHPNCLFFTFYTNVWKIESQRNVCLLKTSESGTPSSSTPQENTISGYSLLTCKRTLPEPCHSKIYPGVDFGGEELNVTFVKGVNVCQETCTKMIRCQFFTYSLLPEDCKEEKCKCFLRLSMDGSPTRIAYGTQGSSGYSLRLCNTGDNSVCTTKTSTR", "assay": "Kallikrein inhibition assay utilizing a quenched AMC peptide substrate (FLINT)", "type": "biochemical", "settings": "kinetic reads at 5 min intervals over 30 min; 30 min preincubation; Z-Gly-Pro-Arg-AMC substrate; read-out: Kallikrein (KIN) IC50", "protocol": "Biological Example 2: Kallikrein Inhibition Assay Utilizing a Quenched AMC Peptide Substrate\nA fluorescence intensity (FLINT) based assay was used to monitor inhibition of human plasma kallikrein. The peptide substrate, Z-Gly-Pro-Arg-AMC (Purchased from Bachem; Catalog #I-1150) was chosen based on its relatively low KM for kallikrein which enables running the assay at lower substrate concentrations to control background fluorescence. The kinetic parameters for this substrate were determined by fitting titration data to the Michaelis-Menten equation yielding a KM=40 μM, kcat=0.76 s^−1, and kcat/KM=18932 M^−1s^−1.\nThe Kallikrein FLINT assay was used with the following Z-Gly-Pro-Arg-AMC assay buffer: 50 mM Tris, pH 7.5, 100 mM NaCl, 5 mM CaCl2, 0.1 mg/mL BSA, 0.03% CHAPS. Assay buffer was prepared by mixing all ingredients fresh. 2× Z-Gly-Pro-Arg-AMC peptide substrate was prepared by diluting 10 mM stock into 1× assay buffer for a 100 μM working concentration (50 μM final concentration). The 2× kallikrein stock solution was prepared by diluting 14.76 μM stock in 1× assay buffer for a 4 nM working stock solution (2 nM final concentration).\nTest compound(s) were run in an 11-point, 3-fold serial dilution with a final top compound concentration of 1 μM. Final DMSO in assay was 2%. Plasma kallikrein was pre-incubated for 30-minute with compound and then 50 μM substrate was added to initiate the reaction. The assay was run with kinetic (KIN) reads at 5 min intervals over 30 minutes. The time course was linear using 2 nM kallikrein greater than 30 minutes. More specifically, the assay was run as follows: • 100 nL of 0.1 mM test compound was dispensed into black 384-well non-binding Greiner BioOne 784900 plate for 1 μM final concentration; • 5 μL of 1× assay buffer was dispensed to columns 24 (low control) and 5 μL 2× human kallikrein enzyme solution was dispensed to columns 1-23 (column 23 high control); • the plate was centrifuged with a “cover” plate at 500 rpm for 1 min the plate was pre-incubated for 30 minutes at room temperature with plate covered; • 5 μL of 2× Z-Gly-Pro-Arg-AMC peptide substrate was dispensed into the entire plate, columns 1-24; • the plate was centrifuged with a “cover” plate at 500 rpm for 1 min; • the plate was read monitoring fluorescence intensity on the BMG PHERAStar at room temperature, using fluorescence module 340 nm/440 nm.\nPercent inhibition (IC50) curves were generated per compound tested, and data was analyzed using a 4-parameter logistic fit using GeneData Screener. The relative fluorescence unit (RFU) values were normalized to percent inhibition using the following equation: % inhibition=((HC−LC)−(compound−LC)/(HC−LC))*100\nwhere LC—low control=mean signal of […] 100% inhibition of human kallikrein enzyme; HC—high control=mean signal of […]+Z-Gly-Pro-Arg-AMC peptide substrate with DMSO only.\nas §1\nwhere Y is the % inhibition in the presence of X inhibitor concentration, Top=high control=mean signal of human kallikrein enzyme+Z-Gly-Pro-Arg-AMC peptide substrate with DMSO only; Bottom=low control−mean signal of no human kallikrein enzyme or 100% inhibition of human kallikrein enzyme; HillSlope—Hill coefficient; and IC50=concentration of compound with 50% inhibition in relation to top/high control.\nRepresentative compounds of formula (I) of the present invention were tested according to the procedure described in Biological Example 1 and Biological Example 2 above, with results as listed in Table 2, below. Results listed in the (ER) column were measured using endpoint reads where a single fluorescence reading was measured for each well at a 30 min timepoint. […]"}}, "data": [{"smiles": "Nc1ccc(-c2cnn(C3CCc4cc(-c5c(-n6cnnn6)ccc(Cl)c5F)c[n+]([O-])c43)c2)c(Cl)n1", "note": "(single isomer, unassigned) [ID No. 22, (S*)-7-(4-(6-Amino-2-chloropyridin-3-yl)-1H-pyrazol-1-yl)-3-(3-chloro-2-fluoro-6-(1H-tetrazol-1-yl)phenyl)-6,7-dihydro-5H-cyclopenta[b]pyridine 1-oxide]", "values": [{"measurement": "IC50", "setting": "[1]", "result": 0.003, "unit": "µM"}, {"measurement": "IC50", "setting": "[2]", "result": 0.176, "unit": "µM"}]}, {"smiles": "NC(=O)c1ccc(-c2cnn(C3CCc4cc(-c5c(-n6cc(C(F)(F)F)nn6)ccc(Cl)c5F)c[n+]([O-])c43)c2)cc1F", "note": "(single isomer, unassigned) [ID No. 28, (S*)-7-(4-(4-Carbamoyl-3-fluorophenyl)-1H-pyrazol-1-yl)-3-(3-chloro-2-fluoro-6-(4-(trifluoromethyl)-1H-1,2,3-triazol-1-yl)phenyl)-6,7-dihydro-5H-cyclopenta[b]pyridine 1-oxide]", "values": [{"measurement": "IC50", "setting": "[1]", "result": 0.037, "unit": "µM"}, {"measurement": "IC50", "setting": "[2]", "result": 0.067, "unit": "µM"}]}, {"smiles": "Cn1ncc(-c2cnn(C3CCc4cc(-c5c(-n6cnnn6)ccc(Cl)c5F)c[n+]([O-])c43)c2)cc1=O", "note": "(racemic) [ID No. 19, 3-(3-Chloro-2-fluoro-6-(1H-tetrazol-1-yl)phenyl)-7-(4-(1-methyl-6-oxo-1,6-dihydropyridazin-4-yl)-1H-pyrazol-1-yl)-6,7-dihydro-5H-cyclopenta[b]pyridine 1-oxide]", "values": [{"measurement": "IC50", "setting": "[1]", "result": 1.17, "unit": "µM"}, {"measurement": "IC50", "setting": "[2]", "result": 6.36, "unit": "µM"}]}, {"smiles": "Nc1nc(F)c(-c2cnn(C3CCCc4cc(-c5c(-n6cnnn6)ccc(Cl)c5F)c[n+]([O-])c43)c2)cc1Cl", "note": "(racemic) [ID No. 30, 8-(4-(6-Amino-5-chloro-2-fluoropyridin-3-yl)-1H-pyrazol-1-yl)-3-(3-chloro-2-fluoro-6-(1H-tetrazol-1-yl)phenyl)-5,6,7,8-tetrahydroquinoline 1-oxide]", "values": [{"measurement": "IC50", "setting": "[1]", "result": 1.26, "unit": "µM"}, {"measurement": "IC50", "setting": "[2]", "result": 2.88, "unit": "µM"}]}, {"smiles": "Cc1cc(-c2cnn(C3CCc4cc(-c5c(-n6cnnn6)ccc(Cl)c5F)c[n+]([O-])c43)c2)ccn1", "note": "(racemic) [ID No. 23, 3-(3-Chloro-2-fluoro-6-(1H-tetrazol-1-yl)phenyl)-7-(4-(2-methylpyridin-4-yl)-1H-pyrazol-1-yl)-6,7-dihydro-5H-cyclopenta[b]pyridine 1-oxide]", "values": [{"measurement": "IC50", "setting": "[1]", "result": 0.032, "unit": "µM"}, {"measurement": "IC50", "setting": "[2]", "result": 0.393, "unit": "µM"}]}, {"smiles": "Cn1c(-c2cnn(C3CCc4cc(-c5c(-n6cnnn6)ccc(Cl)c5F)c[n+]([O-])c43)c2)cccc1=O", "note": "(racemic) [ID No. 20, 3-(3-Chloro-2-fluoro-6-(1H-tetrazol-1-yl)phenyl)-7-(4-(1-methyl-6-oxo-1,6-dihydropyridin-2-yl)-1H-pyrazol-1-yl)-6,7-dihydro-5H-cyclopenta[b]pyridine 1-oxide]", "values": [{"measurement": "IC50", "setting": "[1]", "result": 3.11, "unit": "µM"}, {"measurement": "IC50", "setting": "[2]", "result": "> 10", "unit": "µM"}]}, {"smiles": "Cn1nncc1-c1cnn([C@H]2CCc3cc(-c4c(-n5cnnn5)ccc(Cl)c4F)c[n+]([O-])c32)c1", "note": "[ID No. 25, (S)-3-(3-Chloro-2-fluoro-6-(1H-tetrazol-1-yl)phenyl)-7-(4-(1-methyl-1H-1,2,3-triazol-5-yl)-1H-pyrazol-1-yl)-6,7-dihydro-5H-cyclopenta[b]pyridine 1-oxide]", "values": [{"measurement": "IC50", "setting": "[1]", "result": "> 10", "unit": "µM"}, {"measurement": "IC50", "setting": "[2]", "result": "> 10", "unit": "µM"}]}]}
